Experimental findings from paper PMC9823097, “Dysregulation of PRMT5 in chronic lymphocytic leukemia promotes progression with high risk of Richter’s transformation” (Nature Communications, 2023) are described below.

“Also recorded” adds a separate entry of the source. A value given as a limit tells only on which side of the number the result lay.

One series concerns HG3 CLL cell line. Briefly: Global symmetric dimethyl arginine (SDMA) western blot, HG3. Type of series: cell-based. An excerpt:
Proteins extracted from whole-cell lysates were resolved by SDS-PAGE and transferred on nitrocellulose membrane as previously described. CpG685 oligonucleotide was obtained from the OSU Cytogenetics Core Lab. Antibodies used for immunoblots included anti-human PRMT5 (Abcam #ab109451), GAPDH (Millipore Sigma #MAB374), SDMA (Cell Signaling Technology #13222), c-Myc (Cell Signaling Technology #5605S), and β-Actin (Cell Signaling Technology #4967S). Cas9-mediated doxycycline-inducible knockout of PRMT5 utilized a targeted sgRNA (guide sequence: […], PAM: GGG).
For orientation: In western blotting, separated proteins are transferred to a membrane and probed.

For series [1], the target named is 38 other methyltransferases (e.g DNMTs, MLL1-4 complexes, EZH1 and EZH2 complexes, NRMTs, NSD, SUVs, SMYs, SETs, PRDM9), and other members of the PRMT family. Briefly: Methyltransferase selectivity panel, 3H-SAM radioligand with filtration binding. The series is classed as biochemical. As to the method: (§1) For in vitro assays, the compound was stored in a 10 mM solution in DMSO. For in vivo assays, PRT382 was dissolved in a 0.5% methylcellulose, 0.1% tween solution, and administered as oral gavage. For Pharmacokinetic studies, PRT382 was formulated in 0.5% carboxymethylcellulose sodium salt + 0.5%Tween80 as a 1 mg/mL suspension for 10 mg/kg and was administered in a 10 mL/kg dose volume by oral gavage to CD-1 mice. Blood was collected at various time points after dosing into EDTA-K2 tubes, placed on ice, and stored at −80 °C prior to analysis by LC-MS/MS. For biochemical potency and selectivity, PRT382 was solubilized in 100% DMSO and diluted serially threefold. For assessment of selectivity, enzyme activity against a panel of 37 methyltransferases was evaluated using 3H-SAM as a radioligand probe with filtration binding. PRT382 was tested in duplicate at a final concentration of 10 µM. The percent of enzyme activity relative to DMSO control condition was determined for each enzyme.

Series [2] in a line: Tolerability after 5 daily oral doses in WT CD-1 mice. Type of series: in vivo. To be noted: 10, 30 and 100 mg/kg. Here is the method: as §1
A further series deals with JVM-2. The experiment in a line: Anti-proliferative activity, MTS assay, JVM-2. To be noted: Homo sapiens, DLBCL, read-out: PRT382 IC50 (anti-proliferative). Type of series: cell-based. As to the method: (§2) Cell proliferation was assessed via MTS (3-[4,5-dimethylthiazol-2-yl]-5-[3-carboxymethoxyphenyl]-2-[4-sulfophenyl]-2H-tetrazolium) assay (Sigma), using the tetrazolium dye […]. Cell apoptosis was evaluated by Annexin V-FITC or PE and propidium iodide (PI) staining using FC500 cytometer (Beckman-Coulter, Indianapolis, IN) following the manufacturer’s procedure (BD Pharmingen, Billerica, MA)[55]. For cell cycle analysis, cells were fixed with cold ethanol overnight and then stained before analysis with 30 μg/mL propidium iodide (Invitrogen) and 200 μg/mL RNase (Sigma-Aldrich) in 0.1 % v/v Triton X-100 (Sigma-Aldrich). Cell cycle data analysis was performed using ModFit LT software (Verity Software House, Topsham, ME).

In the next series the test system is CCMCL-1. Briefly: Anti-proliferative activity, MTS assay, CCMCL-1. Type of series: cell-based. The conditions noted are these: MCL, read-out: PRT382 IC50 (anti-proliferative). As to the method:
as §2
For orientation: Tetrazolium dyes change colour on reduction, which living cells bring about.

The next series concerns RL. The experiment in a line: Anti-proliferative activity, MTS assay, RL. The series is classed as cell-based. To be noted: Homo sapiens, DLBCL, read-out: PRT382 IC50 (anti-proliferative). As to the method: as §2
In another series the test system is Jurkat. Briefly: Anti-proliferative activity, MTS assay, Jurkat. Type of series: cell-based. To be noted: Homo sapiens, T-cell line, read-out: PRT382 IC50 (anti-proliferative). As to the method: as §2
Series [3] can be described thus: Pharmacokinetics in dogs (clearance, oral bioavailability). The series is classed as in vivo.
For series [4], the target named is recombinant human PRMT5/MEP50 (Homo sapiens, UniProt O14744). The experiment in a line: Filtration binding assay with recombinant human PRMT5/MEP50 (biochemical potency). As to the method:
For biochemical potency and selectivity, PRT382 was solubilized in 100% DMSO and diluted serially threefold. […] Standard reactions were performed in a total volume of 30 μl in assay buffer, with 300 nM histone H4-based AcH4-23 (Anaspec: AS-65002) as substrate. To this was added the PRMT5/MEP50 complex diluted to provide a final assay concentration of 2.5 nM, and the compounds were allowed to preincubate for 20 min at 37 °C. The reaction was initiated by adding S-[3 H-methyl]-adenosyl-L-methionine (PerkinElmer: NET155001MC) to a final concentration of 1 μM. Following a 30 min of incubation at 37 °C, the reaction was stopped by adding 25 μL of 8 M Guanidine HCl. To each reaction, 150 µL of SPA beads suspension (Perkinelmer: RPNQ0012) was added and incubated while shaking at room temperature for 30 min. The plate was centrifuged at 100 xg for 30 s before reading in a scintillation counter. IC50 values were determined by fitting the data to with Hill Slope using GraphPad Prism software (v9.2.0).

recombinant human PRMT5/MEP50, sequence (O14744 whole entry): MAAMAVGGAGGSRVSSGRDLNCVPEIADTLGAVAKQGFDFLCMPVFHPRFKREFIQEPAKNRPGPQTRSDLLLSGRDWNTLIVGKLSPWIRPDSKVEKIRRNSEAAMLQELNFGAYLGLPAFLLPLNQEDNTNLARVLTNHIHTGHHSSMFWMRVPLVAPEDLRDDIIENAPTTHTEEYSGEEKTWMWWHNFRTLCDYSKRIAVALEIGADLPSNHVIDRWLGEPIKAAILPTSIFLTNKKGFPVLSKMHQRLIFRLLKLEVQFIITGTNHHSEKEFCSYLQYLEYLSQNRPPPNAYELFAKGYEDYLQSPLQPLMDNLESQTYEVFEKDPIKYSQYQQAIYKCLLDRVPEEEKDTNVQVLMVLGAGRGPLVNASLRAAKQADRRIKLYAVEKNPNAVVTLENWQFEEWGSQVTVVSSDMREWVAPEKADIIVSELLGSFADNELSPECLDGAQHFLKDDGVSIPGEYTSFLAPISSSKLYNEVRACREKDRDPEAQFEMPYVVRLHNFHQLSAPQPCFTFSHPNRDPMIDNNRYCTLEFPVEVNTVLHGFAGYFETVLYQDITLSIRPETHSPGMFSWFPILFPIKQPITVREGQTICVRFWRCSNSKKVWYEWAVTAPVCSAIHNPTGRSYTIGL
recombinant human PRMT5/MEP50, sequence (Q9BQA1 whole entry partner): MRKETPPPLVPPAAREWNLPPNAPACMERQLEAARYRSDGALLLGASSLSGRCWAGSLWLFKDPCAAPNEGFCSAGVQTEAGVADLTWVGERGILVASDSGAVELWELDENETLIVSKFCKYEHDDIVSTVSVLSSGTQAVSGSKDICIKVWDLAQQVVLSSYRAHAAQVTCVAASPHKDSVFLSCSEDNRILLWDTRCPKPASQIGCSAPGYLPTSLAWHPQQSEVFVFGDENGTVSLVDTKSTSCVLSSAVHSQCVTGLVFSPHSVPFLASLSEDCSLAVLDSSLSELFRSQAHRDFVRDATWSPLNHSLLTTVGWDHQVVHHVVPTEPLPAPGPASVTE

The term IC50 denotes the concentration needed to halve the response being measured. By bioavailability is commonly meant dose-corrected exposure relative to a reference, in per cent. As to `CON=c1nc[nH]c2c1ccn2[C@@H]1O[C@H]([C@H](O)c2ccc(Cl)c(Cl)c2)[C@@H](O)[C@H]1O.Cl` [PRT382, (2 R,3 S,4 R,5 R)-2-[(R)-(3,4-dichlorophenyl)-hydroxy-methyl]-5-[(4Z)-4-methoxyimino-1H-pyrrolo[2,3-d]pyrimidin-7-yl]tetrahydrofuran-3,4-diol hydrochloride], in the series on HG3 CLL cell line (HG3, 72 h treatment), the “lowest dose with decrease in global SDMA residues” value was found to be 100 nM. Also, the IC50 is greater than 1000 nM in series [1] (38 other methyltransferases and other PRMT family members, read-out: IC50 against other methyltransferases); 10 nM in the series with JVM-2; 14 nM in the series on CCMCL-1; 16 nM in the series with RL; greater than 1000 nM in the series on Jurkat. Also, the “inhibition of other tested methyltransferases” value in [1] (PRT382 at 10 uM) is no more than 20%. In series [2], the tolerability entry is listed as “well-tolerated”. The observable toxicity result in [2] (after 5 daily oral doses) is given as “without observable toxicity”. For the same compound, the clearance result in series [3] is “low”. For the same compound, the bioavailability in [3] (dog, in vivo, po, read-out: oral bioavailability (F%)) is 70 to 80%. The “PRT382 dose-response signal (Figure 6C; DMSO = 100.515)” value came out at 76.3419 in [4] (508.1 pM); 63.1814 in series [4] (1.52416e-9 M); 38.5693 in series [4] (4.57247e-9 M); 22.7886 in [4] (1.37174e-8 M); 12.7118 in series [4] (4.11523e-8 M); 6.679 in series [4] (1.23457e-7 M). Besides, the “PRT382 dose-response signal (Figure 6C; DMSO = 100.515)” value in series [4] (3.7037e-7 M) is 2.863; in series [4] (1.11111e-6 M), 1.261; in [4] (3.33333e-6 M), 0.4291; in series [4] (1e-5 M), 0.1164.
On to `O=C(NC[C@H](O)CN1CCc2ccccc2C1)c1cc(NC2COC2)ncn1` [EPZ015666], for which the “global symmetric dimethyl arginine residues (immunoblot)” value in the series with HG3 CLL cell line (HG3, EPZ015666 for 72hr) is given as “dose dependent global loss; also recorded: only a modest decrease”.
